Data on 17 compounds can be found in patent publication US12012409B2, “Bicyclic heterocycles as FGFR inhibitors” (Incyte Corporation, priority 2020, dated 2024).

The structures appear in SMILES notation. pIC50: −log10 of the molar value.

What all share (assay type): biochemical
What all share (settings): wild-type un-phosphorylated protein; pre-incubated for 4 hours; ATP near or below Km

The target of assay [1] is wild-type un-phosphorylated FGFR3 (Homo sapiens, UniProt P22607). Nature of the assay: FGFR Enzymatic Assay (FRET peptide phosphorylation), FGFR3. As to the method:
(§1) The inhibitor potency of the exemplified compounds was determined in an enzyme discontinuous assay that measures peptide phosphorylation using FRET measurements to detect product formation. Inhibitors were serially diluted in DMSO and a volume of 0.2 μL was transferred to the wells of a 384-well plate. […] Appropriate controls (enzyme blank and enzyme with no inhibitor) were included on the plate. […] The ATP Km values were pre-determined in a separate series of experiments. […] The plate was allowed to equilibrate for ˜10 minutes at ambient temperature before scanning on a PheraStar plate reader (BMG Labtech) instrument.
(§2) Either GraphPad prism or XLfit was used to analyze the data. The IC50 values were derived by fitting the data to a four parameter logistic equation producing a sigmoidal dose-response curve with a variable Hill coefficient. Prism equation: Y=Bottom+(Top−Bottom)/(1+10^((LogIC50−X)*Hill slope)); XLfit equation: Y=(A+((B−A)/(1+((X/C)^D)))) where X is the logarithm of inhibitor concentration and Y is the response.

The target in assay [2] is wild-type un-phosphorylated FGFR4 (Homo sapiens, UniProt P22455). Nature of the assay: FGFR Enzymatic Assay (FRET peptide phosphorylation), FGFR4. As to the method:
as §1, §2
(§3) The data in Table 1 was measured in wild-type un-phosphorylated FGFR1, FGFR2, FGFR3 and FGFR4 protein.

In assay [3] the target is wild-type un-phosphorylated FGFR1 (Homo sapiens, UniProt P11362). In words: FGFR Enzymatic Assay (FRET peptide phosphorylation), FGFR1. On the procedure: as §1, §2
Chain of wild-type un-phosphorylated FGFR1 (P11362 22-822): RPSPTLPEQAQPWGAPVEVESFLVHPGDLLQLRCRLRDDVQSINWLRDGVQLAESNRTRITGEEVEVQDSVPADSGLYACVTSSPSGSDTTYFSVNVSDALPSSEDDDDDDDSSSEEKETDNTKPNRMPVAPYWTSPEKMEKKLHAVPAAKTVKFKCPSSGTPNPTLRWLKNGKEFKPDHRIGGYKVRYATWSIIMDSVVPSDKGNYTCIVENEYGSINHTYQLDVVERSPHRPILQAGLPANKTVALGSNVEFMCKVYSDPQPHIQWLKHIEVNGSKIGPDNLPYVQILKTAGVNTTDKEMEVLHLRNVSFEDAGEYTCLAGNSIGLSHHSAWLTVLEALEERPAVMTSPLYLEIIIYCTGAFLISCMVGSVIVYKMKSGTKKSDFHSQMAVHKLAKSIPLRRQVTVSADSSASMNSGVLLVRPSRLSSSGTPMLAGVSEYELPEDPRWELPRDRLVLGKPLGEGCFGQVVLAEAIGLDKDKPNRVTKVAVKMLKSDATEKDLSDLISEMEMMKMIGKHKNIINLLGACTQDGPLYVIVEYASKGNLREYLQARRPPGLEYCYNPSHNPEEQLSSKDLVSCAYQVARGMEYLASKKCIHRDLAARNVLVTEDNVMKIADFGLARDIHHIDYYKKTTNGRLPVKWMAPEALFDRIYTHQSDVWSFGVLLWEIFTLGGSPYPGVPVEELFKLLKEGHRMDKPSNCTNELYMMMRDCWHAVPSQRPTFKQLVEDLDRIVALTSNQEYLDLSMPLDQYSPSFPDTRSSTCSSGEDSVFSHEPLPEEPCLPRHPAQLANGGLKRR
In assay [4] the target is wild-type un-phosphorylated FGFR2 (Homo sapiens, UniProt P21802). In words: FGFR Enzymatic Assay (FRET peptide phosphorylation), FGFR2. On the procedure:
as §1, §2, §3

Chain of wild-type un-phosphorylated FGFR2 (P21802 22-821): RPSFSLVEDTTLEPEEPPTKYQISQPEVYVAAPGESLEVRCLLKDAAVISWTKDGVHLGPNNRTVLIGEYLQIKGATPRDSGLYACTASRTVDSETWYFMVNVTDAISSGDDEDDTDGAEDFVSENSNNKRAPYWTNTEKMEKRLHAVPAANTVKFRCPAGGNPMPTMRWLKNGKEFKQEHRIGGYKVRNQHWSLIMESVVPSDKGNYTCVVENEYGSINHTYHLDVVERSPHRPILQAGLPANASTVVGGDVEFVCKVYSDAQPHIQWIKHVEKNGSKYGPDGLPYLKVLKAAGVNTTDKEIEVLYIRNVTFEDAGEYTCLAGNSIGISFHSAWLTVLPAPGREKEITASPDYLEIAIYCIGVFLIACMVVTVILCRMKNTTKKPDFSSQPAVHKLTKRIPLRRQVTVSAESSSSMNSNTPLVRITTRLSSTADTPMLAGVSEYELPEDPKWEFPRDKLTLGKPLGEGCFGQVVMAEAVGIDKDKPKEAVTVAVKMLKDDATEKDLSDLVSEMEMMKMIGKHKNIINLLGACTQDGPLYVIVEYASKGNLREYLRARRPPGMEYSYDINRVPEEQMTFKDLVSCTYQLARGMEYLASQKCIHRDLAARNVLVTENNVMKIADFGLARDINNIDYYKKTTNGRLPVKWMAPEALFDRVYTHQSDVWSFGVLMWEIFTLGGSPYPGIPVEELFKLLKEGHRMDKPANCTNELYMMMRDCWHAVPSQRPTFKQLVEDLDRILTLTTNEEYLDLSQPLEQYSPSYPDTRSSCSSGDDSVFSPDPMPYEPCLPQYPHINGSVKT
Chain of wild-type un-phosphorylated FGFR3 (P22607 23-806): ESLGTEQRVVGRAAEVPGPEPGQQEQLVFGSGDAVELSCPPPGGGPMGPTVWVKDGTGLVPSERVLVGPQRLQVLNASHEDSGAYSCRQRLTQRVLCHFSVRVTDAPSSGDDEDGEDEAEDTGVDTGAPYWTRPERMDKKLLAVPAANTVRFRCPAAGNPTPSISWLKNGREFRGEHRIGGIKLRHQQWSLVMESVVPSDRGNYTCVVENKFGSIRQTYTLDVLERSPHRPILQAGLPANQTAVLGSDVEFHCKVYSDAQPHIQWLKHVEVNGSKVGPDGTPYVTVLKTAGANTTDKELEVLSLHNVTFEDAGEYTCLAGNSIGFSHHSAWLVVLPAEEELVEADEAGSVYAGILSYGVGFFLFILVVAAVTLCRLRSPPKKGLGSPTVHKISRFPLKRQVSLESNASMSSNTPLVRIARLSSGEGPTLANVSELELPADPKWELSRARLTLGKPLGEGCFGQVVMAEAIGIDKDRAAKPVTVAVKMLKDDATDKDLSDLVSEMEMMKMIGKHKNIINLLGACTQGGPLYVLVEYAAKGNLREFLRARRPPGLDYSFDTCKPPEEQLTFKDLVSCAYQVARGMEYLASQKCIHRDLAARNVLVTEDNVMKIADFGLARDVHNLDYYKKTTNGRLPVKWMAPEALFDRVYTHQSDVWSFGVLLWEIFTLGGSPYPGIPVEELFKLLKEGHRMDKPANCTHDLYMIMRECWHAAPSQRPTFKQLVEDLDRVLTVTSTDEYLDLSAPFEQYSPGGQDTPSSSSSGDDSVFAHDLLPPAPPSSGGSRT
Chain of wild-type un-phosphorylated FGFR4 (P22455 22-802): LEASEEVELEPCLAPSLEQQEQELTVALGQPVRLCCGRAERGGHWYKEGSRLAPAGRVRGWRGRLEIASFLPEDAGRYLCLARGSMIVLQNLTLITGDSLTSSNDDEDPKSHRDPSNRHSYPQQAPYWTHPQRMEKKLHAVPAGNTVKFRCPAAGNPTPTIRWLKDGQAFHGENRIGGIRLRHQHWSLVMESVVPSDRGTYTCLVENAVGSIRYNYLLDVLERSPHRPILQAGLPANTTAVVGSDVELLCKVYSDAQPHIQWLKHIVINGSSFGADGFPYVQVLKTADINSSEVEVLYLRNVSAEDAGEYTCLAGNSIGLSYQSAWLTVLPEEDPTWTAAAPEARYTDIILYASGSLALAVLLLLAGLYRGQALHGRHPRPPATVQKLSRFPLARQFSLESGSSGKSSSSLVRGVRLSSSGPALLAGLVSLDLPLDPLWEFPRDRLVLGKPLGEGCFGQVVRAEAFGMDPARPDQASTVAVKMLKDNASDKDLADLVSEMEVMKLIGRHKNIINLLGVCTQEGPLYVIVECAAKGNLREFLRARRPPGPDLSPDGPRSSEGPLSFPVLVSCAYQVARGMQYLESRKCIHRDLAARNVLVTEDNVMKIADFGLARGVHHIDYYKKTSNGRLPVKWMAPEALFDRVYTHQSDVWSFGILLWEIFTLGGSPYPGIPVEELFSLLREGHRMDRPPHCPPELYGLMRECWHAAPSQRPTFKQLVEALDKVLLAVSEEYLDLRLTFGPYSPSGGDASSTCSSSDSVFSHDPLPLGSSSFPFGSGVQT

What is called pIC50 is the IC50 on a negative log10 scale, so that one unit is a factor of ten. For the compound `CNC(=O)c1cccc(-c2cnc3cc(-c4cnn(C)c4)c(OC)cn23)c1` [Example 1, 3-(6-Methoxy-7-(1-methyl-1H-pyrazol-4-yl)imidazo[1,2-a]pyridine-3-yl)-N-methylbenzamide], the pIC50 is 7.00 to 8.00 in assay [1], not above 6.40 in assay [2] and not above 6.40 in assay [3].

In assay [2], `CNC(=O)c1cccc(-c2cnc3cc(-c4cnn(C)c4)c(OC)nn23)c1` [Example 2, 3-(6-Methoxy-7-(1-methyl-1H-pyrazol-4-yl)imidazo[1,2-b]pyridazin-3-yl)-N-methylbenzamide] had a negative-log IC50 (pIC50) not above 6.40.

For the compound `CC(C)n1cc(-c2cc3ncc(-c4cccc(F)c4F)n3nc2O[C@H]2CCOC2)cn1` [Example 46, (S)-3-(2,3-Difluorophenyl)-7-(1-isopropyl-1H-pyrazol-4-yl)-6-((tetrahydrofuran-3-yl)oxy)imidazo[1,2-b]pyridazine], the pIC50 in assay [1] is 7.00 to 8.00; in assay [4], 7.00 to 8.00; in assay [3] it was 6.40 to 7.00.

Turning to `CCOc1cccc(-c2cnc3cc(-c4cnn(C)c4)c(O[C@H]4CCOC4)nn23)c1` [Example 47, (S)-3-(3-Ethoxyphenyl)-7-(1-methyl-1H-pyrazol-4-yl)-6-((tetrahydrofuran-3-yl)oxy)imidazo[1,2-b]pyridazine], the negative logarithm of the IC50 (pIC50) in assay [1], in assay [4] and in assay [3] was 7.00 to 8.00 throughout.

As to `CC(C)(O)Cn1cc(-c2cc3ncc(-c4cccc(-c5ccc(F)cc5F)c4)n3nc2O[C@H]2CCOC2)cn1` [Example 48, (S)-1-(4-(3-(2′,4′-Difluoro-[1,1′-biphenyl]-3-yl)-6-((tetrahydrofuran-3-yl)oxy)imidazo[1,2-b]pyridazin-7-yl)-1H-pyrazol-1-yl)-2-methylpropan-2-ol], the pIC50 in assay [1], in assay [4] and in assay [3] was 7.00 to 8.00 throughout.

In the case of `CNC(=O)c1cccc(-c2cnc3cc(-c4cnn(C)c4)c(OC4COC4)nn23)c1` [Example 58, N-Methyl-3-(7-(1-methyl-1H-pyrazol-4-yl)-6-(oxetan-3-yloxy)imidazo[1,2-b]pyridazin-3-yl)benzamide], the results for the pIC50 in assay [4] and in assay [2] were more than 8.00 and 6.40 to 7.00, respectively.

With `CNC(=O)c1cncc(-c2cnc3cc(-c4ccc(NC(=O)OC)cc4)c(O[C@H]4CCOC4)nn23)c1` [Example 67, Methyl (S)-(4-(3-(5-(Methylcarbamoyl)pyridin-3-yl)-6-((tetrahydrofuran-3-yl)oxy)imidazo[1,2-b]pyridazin-7-yl)phenyl)carbamate], the pIC50 in assay [1] was 7.00 to 8.00; in assay [4], 7.00 to 8.00; in assay [3] it was 6.40 to 7.00.

For `CNC(=O)c1cncc(-c2cnc3cc(-c4ccc(N5CCN(C)CC5)cc4)c(O[C@H]4CCOC4)nn23)c1` [Example 68, (S)—N-Methyl-5-(7-(4-(4-methylpiperazin-1-yl)phenyl)-6-((tetrahydrofuran-3-yl)oxy)imidazo[1,2-b]pyridazin-3-yl)nicotinamide], the figures for the negative-log IC50 (pIC50) in assay [1], in assay [4] and in assay [3] were more than 8.00, 7.00 to 8.00 and 7.00 to 8.00, respectively.

Regarding `CNC(=O)c1cc(F)c(F)c(-c2cnc3cc(-c4cnn(C5CCS(=O)(=O)C5)c4)c(O[C@H]4CCOC4)nn23)c1` (stereo partly drawn) [Example 69, 3-(7-(1-(1,1-Dioxidotetrahydrothiophen-3-yl)-1H-pyrazol-4-yl)-6-(((S)-tetrahydrofuran-3-yl)oxy)imidazo[1,2-b]pyridazin-3-yl)-4,5-difluoro-N-methylbenzamide], the values for the negative-log IC50 (pIC50) in assay [1], in assay [4] and in assay [3] were more than 8.00, more than 8.00 and 7.00 to 8.00, respectively.

For `CNC(=O)c1cc(F)c(F)c(-c2cnc3cc(-c4cnn(-c5ccccn5)c4)c(O[C@H]4CCOC4)nn23)c1` [Example 70, (S)-3,4-Difluoro-N-methyl-5-(7-(1-(pyridin-2-yl)-1H-pyrazol-4-yl)-6-((tetrahydrofuran-3-yl)oxy)imidazo[1,2-b]pyridazin-3-yl)benzamide], the pIC50 in assay [1] is more than 8.00; in assay [4], more than 8.00; in assay [3], 6.40 to 7.00.

In the case of `CNC(=O)c1cc(F)c(F)c(-c2cnc3cc(-c4cnn(C5CCN(C)CC5)c4)c(O[C@H]4CCOC4)nn23)c1` [Example 71, (S)-3,4-Difluoro-N-methyl-5-(7-(1-(1-methylpiperidin-4-yl)-1H-pyrazol-4-yl)-6-((tetrahydrofuran-3-yl)oxy)imidazo[1,2-b]pyridazin-3-yl)benzamide], the negative-log IC50 (pIC50) in assay [1], in assay [4] and in assay [3] was more than 8.00 throughout.

Regarding `CNC(=O)c1cc(F)c(F)c(-c2cnc3cc(-c4ccncc4)c(O[C@H]4CCOC4)nn23)c1` [Example 72, (S)-3,4-Difluoro-N-methyl-5-(7-(pyridin-4-yl)-6-((tetrahydrofuran-3-yl)oxy)imidazo[1,2-b]pyridazin-3-yl)benzamide], the negative logarithm of the IC50 (pIC50) in assay [1] was more than 8.00; in assay [4], 7.00 to 8.00; in assay [3] it was 6.40 to 7.00.

Consider `CNC(=O)c1cc(F)c(F)c(-c2cnc3cc(-c4cnn(C5CCN(C(=O)N(C)C)CC5)c4)c(O[C@H]4CCOC4)nn23)c1` [Example 73, (S)-4-(4-(3-(2,3-Difluoro-5-(methylcarbamoyl)phenyl)-6-((tetrahydrofuran-3-yl)oxy)imidazo[1,2-b]pyridazin-7-yl)-1H-pyrazol-1-yl)-N,N-dimethylpiperidine-1-carboxamide], for which the pIC50 in assay [1], in assay [4] and in assay [3] was more than 8.00 throughout.

On to `CNC(=O)c1cc(F)c(F)c(-c2cnc3cc(-c4cnn(C5CCN(C(C)=O)CC5)c4)c(O[C@H]4CCOC4)nn23)c1` [Example 74, (S)-3-(7-(1-(1-Acetylpiperidin-4-yl)-1H-pyrazol-4-yl)-6-((tetrahydrofuran-3-yl)oxy)imidazo[1,2-b]pyridazin-3-yl)-4,5-difluoro-N-methylbenzamide], for which the negative-log IC50 (pIC50) in assay [1], in assay [4] and in assay [3] was more than 8.00 throughout.

For the compound `CNC(=O)c1cc(F)c(F)c(-c2cnc3cc(-c4cnn(CCN5CCCC5=O)c4)c(O[C@H]4CCOC4)nn23)c1` [Example 75, (S)-3,4-Difluoro-N-methyl-5-(7-(1-(2-(2-oxopyrrolidin-1-yl)ethyl)-1H-pyrazol-4-yl)-6-((tetrahydrofuran-3-yl)oxy)imidazo[1,2-b]pyridazin-3-yl)benzamide], the pIC50 in assay [1], in assay [4] and in assay [3] was more than 8.00 each time.

Regarding `CNC(=O)c1cc(F)c(F)c(-c2cnc3cc(-c4cnn(C5CCN(S(=O)(=O)N(C)C)CC5)c4)c(O[C@H]4CCOC4)nn23)c1` [Example 76, (S)-3-(7-(1-(1-(N,N-Dimethylsulfamoyl)piperidin-4-yl)-1H-pyrazol-4-yl)-6-((tetrahydrofuran-3-yl)oxy)imidazo[1,2-b]pyridazin-3-yl)-4,5-difluoro-N-methylbenzamide], the negative logarithm of the IC50 (pIC50) in assay [1], in assay [4] and in assay [3] was more than 8.00 in each case.

Turning to `CC(C)n1cc(-c2cc3ncc(-c4ccc5c(c4)C(=O)NC5)n3nc2O[C@H]2CCOC2)cn1` [Example 77, (S)-6-(7-(1-Isopropyl-1H-pyrazol-4-yl)-6-((tetrahydrofuran-3-yl)oxy)imidazo[1,2-b]pyridazin-3-yl)isoindolin-1-one], the pIC50 in assay [1] is 7.00 to 8.00; in assay [4], 7.00 to 8.00; in assay [3] it was not above 6.40.
